Assay results taken from US11484603B2, “Methods, systems, and compositions for inhibiting virulence of A/E family pathogens” (ARIZONA BOARD OF REGENTS ON BEHALF OF THE UNIVERSITY OF …, priority 2017, dated 2022).

How the values were obtained:
mitochondrial network = test: CCCP-induced perturbation of the mitochondrial network (COXIV/DAPI stain); type: cell-based; conditions: compared to mock-treated controls
Source text: In transfected cells, EspZ prevented COOP-induced perturbation of the mitochondrial network (compared to control vector-transfected cells). Red=COXIV (mitochondrial stain); blue=DAPI stain.
The uncoupler carbonyl cyanide m-chlorophenylhydrazone (COOP) induces Fis1- and Drp1-dependent mitochondrial fission. In transfected cells, EspZ prevented COOP-induced perturbation of the mitochondrial network (see FIG. 10). Thus, EspZ may be necessary and sufficient for inhibiting mitochondrial fission.

[1] = test system: EspZ dimerization/oligomerization; test: ToxLuc system (ToxR-TM-MBP fusions, ctx promoter luciferase reporter); type: cell-based, EPEC; conditions: TM2 derivatives expressed as ToxR-TM-MBP fusions in E. coli ΔmalE strain (NT326); baseline Ala17
Source text: (§1) Directional targeting of the TM region to the inner membrane allows the periplasmic MBP domain to complement the growth of the ΔmalE strain in medium containing maltose as the sole carbon source. […] TM domain interactions induce dimerization of cytoplasmic ToxR domains, allowing the transcriptional activator to bind to the ctx promoter and promote expression of the downstream luciferase reporter. […] A 17-residue poly-alanine stretch (Ala17) was used as a baseline TM control for nonspecific ToxR-dependent luciferase activation. A GpA GXXXG mutant (G831) was impaired for luciferase activation (REF).
as §1, with “Membrane-localized GXXXG sequences can promote homo- and hetero-typic interactions between proteins. Referring to FIG. 5A and FIG. 5B, a ToxLuc system was used to verify targeting of the predicted EspZ TM regions to the membrane and to assess the role of GXXXG sequences in EspZ dimerization/oligomerization. […] Western blot analyses confirmed robust expression of all ToxR-TM-MBP fusion proteins. Directional” for “Directional”, “activation. As noted previously, a” for “activation. A”, “mutant (G83I)” for “mutant (G831)”

| Compound | effect on mitochondrial network (mitochondrial network) | luciferase activity (TM self-association) [1] |
| --- | --- | --- |
| N#CC(C#N)=NNc1cccc(Cl)c1 [CCCP, carbonyl cyanide m-chlorophenylhydrazone] | causes fragmentation of the mitochondrial network and its retraction towards the nucleus | – |
| LGLGIAAGVLGLVTTVAGGLAMK (Artificial inhibitor peptide based on EspZ) [G85L, targeting peptide, EspZ TM2 derivative] | – | reduced luciferase activity to near-baseline levels |
| LGLGIAALVLGGVTTVAGGLAMK (Artificial inhibitor peptide based on EspZ) [G81L, targeting peptide, EspZ TM2 derivative] | – | reduced luciferase activity to near-baseline levels |
| LGLLIAALVLGLVTTVAGGLAMK (Artificial inhibitor peptide based on EspZ) [all three G residues, targeting peptide, EspZ TM2 derivative] | – | abrogated luciferase expression |
